Measured values: patent US12077555B2, “STAT degraders and uses thereof” (Kymera Therapeutics, Inc., priority 2019, dated 2024)
Where two headings read alike, the source gives them in different places.

Molecular target: STAT3 (Homo sapiens, UniProt P40763)
Assay: STAT3 HiBiT degradation assay in transfected A549 cells
Type: cell-based
Design: expressed in transfected cells; host or cells: A549
Method in brief: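 Degradation read as HiBiT-tagged STAT3 luminescence (Nano-Glo lytic reagent, 10 min, room temperature) following 24 h compound treatment of transfected A549 cells at 3-fold, 10 points. Percent remaining signal computed against controls and fitted with a four-parameter logistic; DC50 reported as letter bins (A <0.01 to D >1.0 µM).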

[1] = A549, 24 h; read-out: STAT3 HiBiT A549 degradation 24 h: Average external-Abs DC50

Sequence of STAT3 (P40763 whole entry): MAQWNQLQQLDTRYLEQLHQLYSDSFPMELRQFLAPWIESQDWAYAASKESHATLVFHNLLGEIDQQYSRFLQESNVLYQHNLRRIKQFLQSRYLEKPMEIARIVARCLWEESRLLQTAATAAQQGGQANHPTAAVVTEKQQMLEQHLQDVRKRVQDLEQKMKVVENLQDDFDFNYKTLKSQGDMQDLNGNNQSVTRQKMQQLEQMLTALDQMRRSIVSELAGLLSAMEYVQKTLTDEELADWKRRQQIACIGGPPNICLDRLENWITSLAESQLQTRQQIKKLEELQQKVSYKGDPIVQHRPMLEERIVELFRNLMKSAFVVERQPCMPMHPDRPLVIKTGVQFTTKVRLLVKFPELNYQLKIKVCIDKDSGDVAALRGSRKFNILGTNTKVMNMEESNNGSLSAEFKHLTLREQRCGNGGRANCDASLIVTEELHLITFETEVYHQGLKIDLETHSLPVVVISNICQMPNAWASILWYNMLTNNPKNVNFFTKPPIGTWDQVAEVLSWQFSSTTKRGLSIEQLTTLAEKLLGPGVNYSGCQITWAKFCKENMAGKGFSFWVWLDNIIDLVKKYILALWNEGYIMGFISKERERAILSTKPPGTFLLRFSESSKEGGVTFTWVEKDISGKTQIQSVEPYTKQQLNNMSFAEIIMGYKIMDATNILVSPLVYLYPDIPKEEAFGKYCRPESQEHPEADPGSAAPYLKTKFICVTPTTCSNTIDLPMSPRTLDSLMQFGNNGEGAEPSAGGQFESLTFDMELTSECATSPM

SMILES | DC50 [1] | DC50 (read-out: STAT3 HiBiT A549 degradation 24 h: Average external-Abs DC50; A549, 24 h)
Cn1c(=O)n(C2CCC(=O)NC2=O)c2ccc(CCCCCCOc3ccc4c5c3CC[C@H](NC(=O)c3cc6cc(C(=O)P(=O)(O)O)ccc6[nH]3)C(=O)N5[C@H](C(=O)N[C@@H](CCC(N)=O)C(=O)NC(c3ccccc3)c3ccccc3)C4)cc21 (stereo partly drawn) [Compound I-269, 2-[[(2S,11S)-2-[[(1S)-3-Carbamoyl-1-(diphenylmethylcarbamoyl)propyl]carbamoyl]-7-([6-[1-(2,6-dioxopiperidin-3-yl)-3-methyl-2-oxo-1,3-benzodiazol-5-yl]hexyl]oxy)-12-oxo-1-azatricyclo[6.4.1.0^[4,13]]trideca-4(13),5,7-trien-11-yl]carbamoyl]-1H-indole-5-carbonylphosphonic acid] | > 1000 nM | 
Cn1c(=O)n(C2CCC(=O)NC2=O)c2ccc(CCCCOc3ccc4c5c3CC[C@H](NC(=O)c3cc6cc(C(=O)P(=O)(O)O)ccc6[nH]3)C(=O)N5[C@H](C(=O)N[C@@H](CCC(N)=O)C(=O)NC(c3ccccc3)c3ccccc3)C4)cc21 (stereo partly drawn) [Compound I-270, 2-[[(2S,11S)-2-[[(1S)-3-carbamoyl-1-(diphenylmethylcarbamoyl)propyl]carbamoyl]-7-[4-[1-(2,6-dioxopiperidin-3-yl)-3-methyl-2-oxo-1,3-benzodiazol-5-yl]butoxy]-12-oxo-1-azatricyclo[6.4.1.0^[4,13]]trideca-4(13),5,7-trien-11-yl]carbamoyl]-1H-indole-5-carbonylphosphonic acid] | 100 to 1000 nM | 
Cn1c(=O)n(C2CCC(=O)NC2=O)c2ccc([C@H]3CC[C@H](CCCC(=O)N4CC[C@H]5CC[C@@H](C(=O)NC(CCC(N)=O)C(=O)NC(c6ccccc6)c6ccccc6)N5C[C@@H](NC(=O)c5cc6cc(C(=O)P(=O)(O)O)ccc6[nH]5)C4)CC3)cc21 (some centres unmarked) [Compound I-271] | 100 to 1000 nM | 
CC(=O)O[C@@H]1C[C@@H](C(=O)N[C@@H](C)c2ccc(-c3scnc3C)cc2)N(C(=O)[C@@H](NC(=O)CCCCCc2cccc(OC[C@H](CCC(N)=O)NC(=O)[C@@H]3Cc4cccc5c4N3C(=O)[C@@H](NC(=O)c3cc4cc(C(=O)P(=O)(O)O)ccc4[nH]3)CC5)c2F)C(C)(C)C)C1 [Compound I-272] | < 10 nM | 
Cn1c(=O)n(C2CCC(=O)NC2=O)c2ccc([C@H]3CC[C@@H](CCC(=O)N4CC[C@H]5CC[C@@H](C(=O)N[C@@H](CCC(N)=O)C(=O)NC(c6ccccc6)c6ccccc6)N5C(=O)[C@@H](NC(=O)c5cc6cc(C(=O)P(=O)(O)O)ccc6[nH]5)C4)CC3)cc21 (stereo partly drawn) [Compound I-273, 2-[[(5S,8S,10aR)-8-[[(1S)-3-carbamoyl-1-(diphenylmethylcarbamoyl)propyl]carbamoyl]-6-oxo-3-[3-[(1s,4s)-4-[1-(2,6-dioxopiperidin-3-yl)-3-methyl-2-oxo-1,3-benzodiazol-5-yl]cyclohexyl]propanoyl]-octahydropyrrolo[1,2-a][1,5]diazocin-5-yl]carbamoyl]-1H-indole-5-carbonylphosphonic acid] | 100 to 1000 nM | 
Cn1c(=O)n(C2CCC(=O)NC2=O)c2ccc([C@H]3CC[C@@H](CCCC(=O)N4CC[C@H]5CC[C@@H](C(=O)N[C@@H](CCC(N)=O)C(=O)NC(c6ccccc6)c6ccccc6)N5C(=O)[C@@H](NC(=O)c5cc6cc(C(=O)P(=O)(O)O)ccc6[nH]5)C4)CC3)cc21 (stereo partly drawn) [Compound I-274, 2-[[(5S,8S,10aR)-8-[[(1S)-3-carbamoyl-1-(diphenylmethylcarbamoyl)propyl]carbamoyl]-6-oxo-3-[4-[(1s,4r)-4-[1-(2,6-dioxopiperidin-3-yl)-3-methyl-2-oxo-1,3-benzodiazol-5-yl]cyclohexyl]butanoyl]-octahydropyrrolo[1,2-a][1,5]diazocin-5-yl]carbamoyl]-1H-indole-5-carbonylphosphonic acid] | 100 to 1000 nM | 
Cc1ncsc1-c1ccc([C@H](C)NC(=O)[C@@H]2C[C@@H](O)CN2C(=O)[C@@H](NC(=O)CCCCc2cccc(OC[C@H](CCC(N)=O)NC(=O)[C@@H]3CCCN3C(=O)[C@H](CC(C)C)NC(=O)c3cc4cc(C(=O)P(=O)(O)O)ccc4[nH]3)c2F)C(C)(C)C)cc1 [Compound I-276, diammonium 2-[[(2S)-1-[(2S)-2-[[(2S)-4-carbamoyl-1-[2-fluoro-3-(4-[[(2S)-1-[(2S,4R)-4-hydroxy-2-[[(1S)-1-[4-(4-methyl-1,3-thiazol-5-yl)phenyl]ethyl]carbamoyl]pyrrolidin-1-yl]-3,3-dimethyl-1-oxobutan-2-yl]carbamoyl]butyl)phenoxy]butan-2-yl]carbamoyl]pyrrolidin-1-yl]-4-methyl-1-oxopentan-2-yl]carbamoyl]-1H-indole-5-carbonylphosphonate] |  | < 10 nM
Cn1c(=O)n(C2CCC(=O)NC2=O)c2ccc(CCCCCCc3cc4c5c(c3)C[C@@H](C(=O)N[C@@H](CCC(N)=O)c3ccccn3)N5C(=O)[C@@H](NC(=O)c3cc5cc(C(=O)P(=O)(O)O)ccc5[nH]3)CC4)cc21 (stereo partly drawn) [Compound I-277, 2-[[(2S,11S)-2-[[(1S)-3-carbamoyl-1-(pyridin-2-yl)propyl]carbamoyl]-6-[6-[1-(2,6-dioxopiperidin-3-yl)-3-methyl-2-oxo-1,3-benzodiazol-5-yl]hexyl]-12-oxo-1-azatricyclo[6.4.1.0^[4,13]]trideca-4(13),5,7-trien-11-yl]carbamoyl]-1H-indole-5-carbonylphosphonic acid] | 10 to 100 nM | 
Cn1c(=O)n(C2CCC(=O)NC2=O)c2ccc([C@H]3CC[C@H](CCC(=O)N4CC[C@H]5CC[C@@H](C(=O)N[C@@H](CCC(N)=O)C(=O)NC(c6ccccc6)c6ccccc6)N5C(=O)[C@@H](NC(=O)c5cc6cc(C(=O)P(=O)(O)O)ccc6[nH]5)C4)CC3)cc21 (stereo partly drawn) [Compound I-278, 2-[[(5S,8S,10aR)-8-[[(1S)-3-carbamoyl-1-(diphenylmethylcarbamoyl)propyl]carbamoyl]-6-oxo-3-[3-[(1r,4r)-4-[1-(2,6-dioxopiperidin-3-yl)-3-methyl-2-oxo-1,3-benzodiazol-5-yl]cyclohexyl]propanoyl]-octahydropyrrolo[1,2-a][1,5]diazocin-5-yl]carbamoyl]-1H-indole-5-carbonylphosphonic acid] | 100 to 1000 nM | 
Cc1ncsc1-c1ccc([C@H](C)NC(=O)[C@@H]2C[C@@H](O)CN2C(=O)[C@@H](NC(=O)CCCCCc2cccc(OC[C@H](CCC(N)=O)NC(=O)[C@@H]3CCCN3C(=O)[C@H](CC(C)C)NC(=O)c3cc4cc(C(=O)P(=O)(O)O)ccc4[nH]3)c2F)C(C)(C)C)cc1 [Compound I-279] | < 10 nM | 
Cc1ncsc1-c1ccc([C@H](C)NC(=O)[C@@H]2C[C@@H](O)CN2C(=O)[C@@H](NC(=O)CCCCc2cccc(NC(=O)[C@H](CCC(N)=O)NC(=O)[C@@H]3Cc4cccc5c4N3C(=O)C(CC(=O)c3cc4ccc(C(=O)P(=O)(O)O)cc4[nH]3)CC5)c2)C(C)(C)C)cc1 (some centres unmarked) [Compound I-280] | 10 to 100 nM | 
Cc1ncsc1-c1ccc([C@H](C)NC(=O)[C@@H]2C[C@@H](O)CN2C(=O)[C@@H](NC(=O)OCCCCc2cccc(OC[C@H](CCC(N)=O)NC(=O)[C@@H]3Cc4cccc5c4N3C(=O)[C@@H](NC(=O)c3cc4cc(C(=O)P(=O)(O)O)ccc4[nH]3)CC5)c2F)C(C)(C)C)cc1 [Compound I-281] | < 10 nM | 
Cc1ncsc1-c1ccc(C2(NC(=O)[C@@H]3C[C@@H](O)CN3C(=O)[C@@H](NC(=O)CCCc3cccc(OC[C@H](CCC(N)=O)NC(=O)[C@@H]4Cc5cccc6c5N4C(=O)[C@@H](NC(=O)c4cc5cc(C(=O)P(=O)(O)O)ccc5[nH]4)CC6)c3Cl)C(C)(C)C)CC2)cc1 [Compound I-283] | 10 to 100 nM | 
Cn1c(=O)n(C2CCC(=O)NC2=O)c2ccc(CCCCCCC(=O)N3CC[C@H]4CC[C@@H](C(=O)N[C@@H](CCC(N)=O)C(=O)NCc5ccc(S(C)(=O)=O)cc5)N4C(=O)[C@@H](NC(=O)c4cc5cc(C(=O)P(=O)(O)O)ccc5[nH]4)C3)cc21 (stereo partly drawn) [Compound I-288, 2-[[(5S,8S,10aR)-8-[[(1S)-3-carbamoyl-1-[[(4-methanesulfonylphenyl)methyl]carbamoyl]propyl]carbamoyl]-3-[7-[1-(2,6-dioxopiperidin-3-yl)-3-methyl-2-oxo-1,3-benzodiazol-5-yl]heptanoyl]-6-oxo-octahydropyrrolo[1,2-a][1,5]diazocin-5-yl]carbamoyl]-1H-indole-5-carbonylphosphonic acid] | 10 to 100 nM | 
CC(=O)N1CC[C@H]2CC[C@@H](C(=O)N[C@@H](CCC(=O)O)COc3cc(F)cc(CCCC(=O)N[C@H](C(=O)N4C[C@H](O)C[C@H]4C(=O)N[C@@H](C)c4ccc(-c5scnc5C)cc4)C(C)(C)C)c3Cl)N2C(=O)[C@@H](NC(=O)c2cc3cc(C(=O)P(=O)(O)O)ccc3[nH]2)C1 [Compound I-289] | < 10 nM | 
CC(=O)N1CC[C@H]2CC[C@@H](C(=O)N[C@@H](CCC(=O)O)COc3cc(C)cc(CCCC(=O)N[C@H](C(=O)N4C[C@H](O)C[C@H]4C(=O)N[C@@H](C)c4ccc(-c5scnc5C)cc4)C(C)(C)C)c3F)N2C(=O)[C@@H](NC(=O)c2cc3cc(C(=O)P(=O)(O)O)ccc3[nH]2)C1 [Compound I-290] | < 10 nM | 
Cn1c(=O)n(C2CCC(=O)NC2=O)c2ccc(CC[C@H]3CC[C@@H](C(=O)N4CC[C@H]5CC[C@@H](C(=O)N[C@@H](CCC(N)=O)C(=O)NCc6ccc(S(C)(=O)=O)cc6)N5C(=O)[C@@H](NC(=O)c5cc6cc(C(=O)P(=O)(O)O)ccc6[nH]5)C4)CC3)cc21 (stereo partly drawn) [Compound I-294, (2-(((5S,8S,10aR)-8-(((S)-5-amino-1-((4-(methylsulfonyl)benzyl)amino)-1,5-dioxopentan-2-yl)carbamoyl)-3-((1r,4R)-4-(2-(1-(2,6-dioxopiperidin-3-yl)-3-methyl-2-oxo-2,3-dihydro-1H-benzo[d]imidazol-5-yl)ethyl)cyclohexane-1-carbonyl)-6-oxodecahydropyrrolo[1,2-a][1,5]diazocin-5-yl)carbamoyl)-1H-indole-5-carbonyl)phosphonic acid] | < 10 nM | 
